Test results from BindingDB's records for doi:10.1016/j.bmcl.2012.07.104 (University of Lisbon, 2012).
pIC50: −log10 of the molar value.

Molecular target: T1, Cathepsin B-like cysteine protease (Trypanosoma brucei, UniProt Q6R7Z5)
T1 sequence (Q6R7Z5 whole entry): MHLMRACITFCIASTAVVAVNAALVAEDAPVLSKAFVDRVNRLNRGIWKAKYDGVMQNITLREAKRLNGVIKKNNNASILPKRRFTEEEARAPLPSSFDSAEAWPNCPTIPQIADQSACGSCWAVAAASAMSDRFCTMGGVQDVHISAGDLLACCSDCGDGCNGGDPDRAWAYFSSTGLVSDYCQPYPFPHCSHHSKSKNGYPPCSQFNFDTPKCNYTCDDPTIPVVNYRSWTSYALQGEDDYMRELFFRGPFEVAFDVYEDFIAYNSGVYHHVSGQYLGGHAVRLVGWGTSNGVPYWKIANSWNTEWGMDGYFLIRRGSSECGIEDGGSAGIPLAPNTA
Experiment: Inhibition of Trypanosoma brucei CatB

pIC50 | SMILES
4.37 | Cn1c2c3ccc(Cl)cc3nc-2c(NC2CCNCC2)c2ccc(Cl)cc21
< 4.00 | CC(CN(C)C)Nc1c2nc3ccccc3c-2n(C)c2ccccc12 (stereo not given)
4.21 | CN(C)CC(C)(C)CNc1c2nc3ccccc3c-2n(C)c2ccccc12
4.23 | Cn1c2c3ccccc3nc-2c(Nc2cccnc2)c2ccccc21
4.23 | CCN(CC)Cc1ccc(Nc2c3nc4ccccc4c-3n(C)c3ccccc23)cc1O
< 4.00 | CCN(CC)CCCC(C)Nc1c2nc3ccccc3c-2n(C)c2ccccc12 (stereo not given)
4.21 | CC(C)NCCCNc1c2nc3ccccc3c-2n(C)c2ccccc12
4.59 | Cn1c2c3ccccc3nc-2c(NC2CCN(Cc3ccccc3O)CC2)c2ccccc21
4.59 | CC(C)CN1CCC(Nc2c3nc4ccccc4c-3n(C)c3ccccc23)CC1
4.23 | Cn1c2c3ccccc3nc-2c(NC2CCNCC2)c2ccc(Cl)cc21
